Assays:
Tubulin = assay: Inhibition of microtubule assembly = assessed as ratio of ED50 for drug to ED50 for paclitaxel
MCF7R = assay: Cytotoxicity against human MCF7R cells assessed as ratio of ED50 for drug to ED50 for paclitaxel; type: functional
MCF7 = assay: Cytotoxicity against human MCF7 cells assessed as ratio of ED50 for drug to ED50 for paclitaxel; type: functional

Row | Compound | Ratio ED50 (Tubulin) | Ratio ED50 (MCF7R) | Ratio ED50 (MCF7)
1 | CC(=O)O[C@H]1C(=O)[C@@]2(C)[C@H]([C@H](OC(=O)c3ccccc3)[C@]3(O)C[C@H](OC(=O)[C@H](O)[C@H](NC(=O)/C=C/c4ccccc4)c4ccccc4)C(C)=C1C3(C)C)[C@]1(OC(C)=O)CO[C@@H]1C[C@@H]2O | 1.2 | 1.2 | 1.3
2 | C/C=C(\C)C(=O)O[C@H]1[C@@H]2[C@]3(OC(C)=O)CO[C@@H]3C[C@H](O)[C@@]2(C)C(=O)[C@H](OC(C)=O)C2=C(C)[C@@H](OC(=O)[C@H](O)[C@H](NC(=O)c3ccccc3)c3ccccc3)C[C@]1(O)C2(C)C [ISOCEPHALOMANNINE] | 1.1 |  | 12
3 | CCC(C)C(=O)N[C@H](c1ccccc1)[C@@H](O)C(=O)O[C@H]1C[C@@]2(O)[C@@H](OC(=O)c3ccccc3)[C@@H]3[C@]4(OC(C)=O)CO[C@@H]4C[C@H](O)[C@@]3(C)C(=O)[C@H](OC(C)=O)C(=C1C)C2(C)C (some centres not stated) | 6.7 |  | >10
